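A five-concentration, 48-hour dose response in 96-well plates underlies each endpoint, interpolated linearly between surrounding concentrations. The concentration for 50% growth inhibition is given as GI50. TGI: concentration producing complete growth inhibition.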
Columns and labels:
Test in all cases: NCI anticancer screen, dose series, 48 h
HL-60(TB) leukemia = tested on: HL-60(TB) leukemia
OVCAR-5 ovarian = tested on: OVCAR-5 ovarian
TK-10 renal = tested on: TK-10 renal
SNB-75 CNS = tested on: SNB-75 CNS
OVCAR-3 ovarian = tested on: OVCAR-3 ovarian
HCT-116 colon = tested on: HCT-116 colon
A498 renal = tested on: A498 renal
IGROV1 ovarian = tested on: IGROV1 ovarian
UACC-62 melanoma = tested on: UACC-62 melanoma
OVCAR-4 ovarian = tested on: OVCAR-4 ovarian

SMILES | GI50 (HL-60(TB) leukemia) | TGI (HL-60(TB) leukemia) | GI50 (OVCAR-5 ovarian) | TGI (OVCAR-5 ovarian) | GI50 (TK-10 renal) | TGI (TK-10 renal) | GI50 (SNB-75 CNS) | TGI (SNB-75 CNS) | GI50 (OVCAR-3 ovarian) | TGI (OVCAR-3 ovarian) | GI50 (HCT-116 colon) | TGI (HCT-116 colon) | GI50 (A498 renal) | TGI (A498 renal) | GI50 (IGROV1 ovarian) | TGI (IGROV1 ovarian) | GI50 (UACC-62 melanoma) | TGI (UACC-62 melanoma) | GI50 (OVCAR-4 ovarian) | TGI (OVCAR-4 ovarian)
CCC(=O)Sc1ccccc1C(=O)Nc1ccc(Cl)cc1 | 3.65 µM | 19.8 µM | 15.9 µM | 33.2 µM | 22.9 µM | 76.9 µM | 19.2 µM | 98.2 µM | 6.34 µM | 26.1 µM | 3.58 µM | 13.1 µM | 9.19 µM | 38.5 µM | 13.7 µM | > 100 µM | 4.38 µM | 24.3 µM | 13.1 µM | > 100 µM
COc1cc(OC)cc(N2CCC(c3c(N)nc(N)nc3Cl)CC2)c1 | – | > 100 µM | – | > 100 µM | – | > 100 µM | – | > 100 µM | – | > 100 µM | – | – | – | – | – | > 100 µM | – | > 100 µM | – | > 100 µM
COC(=O)c1ccc(CN2CCc3c([nH]c4ccccc34)C2CO)o1 (stereo not given) | – | > 10 µM | – | – | – | > 10 µM | – | > 10 µM | – | > 10 µM | – | – | – | – | – | > 10 µM | – | > 10 µM | – | > 10 µM
CCN(CC)c1ccc(NC(C(=O)c2ccccc2)c2ccccc2)cc1 (stereo not given) | 3.24 µM | 20.9 µM | 2.24 µM | 5.26 µM | 2.49 µM | 7.53 µM | 2.24 µM | 10.7 µM | 3.05 µM | 8.15 µM | 2.58 µM | 6.6 µM | 2.71 µM | 10.1 µM | 4.31 µM | 18.1 µM | 1.92 µM | 4.09 µM | 4.78 µM | 46.2 µM
COc1ccc(C2C3=C(NC(=O)C2C#N)c2ccc4ccccc4c2OCC3)cc1 (stereo not given) | 65.8 µM | > 100 µM | > 100 µM | > 100 µM | 29.5 µM | 76.8 µM | 21.9 µM | 69.1 µM | 70.4 µM | > 100 µM | 35.8 µM | > 100 µM | 10.6 µM | 64.6 µM | > 100 µM | > 100 µM | 19 µM | 45.5 µM | > 100 µM | > 100 µM
C=CCN1C(=O)CS/C1=N\NC(=O)c1c(C)nc2sccn12 | – | > 100 µM | – | > 100 µM | – | > 100 µM | – | – | – | > 100 µM | – | > 100 µM | – | – | – | > 100 µM | – | > 100 µM | – | –
COc1nc(OC)c2c(=O)oc(-c3ccccc3)cc2n1 | – | – | – | > 100 µM | – | > 100 µM | – | > 100 µM | – | – | – | > 100 µM | – | – | – | > 100 µM | – | > 100 µM | – | > 100 µM
COc1ccc(-c2cc3c4c(nc5ccccc5c4c2)CC(c2cc(OC)c(OC)c(OC)c2)O3)cc1 (stereo not given) | > 100 µM | > 100 µM | – | – | 2.37 µM | 5.28 µM | 1.13 µM | 3.1 µM | 1.86 µM | 4.28 µM | 1.31 µM | 4.15 µM | 3.39 µM | 13.4 µM | 2.66 µM | 12.6 µM | 3.54 µM | 20.1 µM | – | –
CCCCN(CC)C(=O)C(=O)C1C(=O)Nc2ccccc2S1=O (stereo not given) | – | – | – | > 100 µM | – | > 100 µM | – | > 100 µM | – | > 100 µM | – | > 100 µM | – | > 100 µM | – | > 100 µM | – | > 100 µM | – | > 100 µM
OCC(O)CC[CH2][Sn]([c]1ccccc1)([c]1ccccc1)[c]1ccccc1 (stereo not given) | 11.3 µM | 35.3 µM | 14.9 µM | 28.3 µM | 17 µM | 31.2 µM | 15.4 µM | 29 µM | 16.2 µM | 29.8 µM | 10.8 µM | 22.7 µM | – | – | 16.3 µM | 33.7 µM | 16.1 µM | 29.8 µM | 16.5 µM | 32.2 µM
O=C1CCC2(c3ccc(F)cc3)Nc3ccccc3N12 (stereo not given) | – | > 100 µM | – | > 100 µM | – | > 100 µM | – | > 100 µM | – | > 100 µM | – | – | – | > 100 µM | – | > 100 µM | – | > 100 µM | – | > 100 µM
CN(C)c1c(Cl)c(=O)oc2c1ccc1nc(-c3ccccc3)sc12 | – | > 100 µM | – | > 100 µM | – | > 100 µM | – | – | – | > 100 µM | – | > 100 µM | – | > 100 µM | – | > 100 µM | – | > 100 µM | – | > 100 µM
c1ccc2c(c1)O[As](O[As]1Oc3ccccc3O1)O2 | 1.49 µM | 3.92 µM | 5.01 µM | 22.2 µM | 4.75 µM | 13.3 µM | 1.87 µM | 12 µM | 2.35 µM | 7.41 µM | 3.17 µM | 14.1 µM | 1.6 µM | 5.64 µM | 1.56 µM | 10.5 µM | – | – | 2.49 µM | 19.7 µM
Cc1c(Cl)ccc2c1NC(=O)C2(O)CC(=O)c1ccc(Cl)cc1Cl (stereo not given) | – | – | – | > 50 µM | – | > 50 µM | – | > 41.3 µM | – | > 50 µM | – | > 50 µM | – | > 50 µM | – | > 50 µM | – | > 50 µM | – | > 50 µM
COc1cc2c(cc1OC)C13CCN4CC5=CCOC(CC(=O)O)C(C5CC41)C3N2 (stereo not given) | – | > 100 µM | – | > 100 µM | – | > 100 µM | – | – | – | > 100 µM | – | > 100 µM | – | > 100 µM | – | > 100 µM | – | > 100 µM | – | > 100 µM
CC(NC(=O)c1ccccc1)C(=O)N(Cc1ccccc1)Cc1ccccc1 (stereo not given) | – | – | – | > 100 µM | – | > 100 µM | – | > 100 µM | – | – | – | 66 µM | – | 89.9 µM | – | > 100 µM | – | 30.7 µM | – | 95.3 µM
O=C1c2ccn(CCCCN3CCOCC3)c2C(=O)c2c1c(O)c1ccccc1c2O | 9.07 µM | 59.9 µM | 11.1 µM | 23.8 µM | 1.56 µM | 7.7 µM | > 100 µM | > 100 µM | 1.62 µM | 8.77 µM | 7.03 µM | 19.9 µM | 19.3 µM | > 100 µM | 20.5 µM | > 100 µM | – | – | 30.3 µM | > 100 µM
CCCCOC1CC2(c3ccc(OC)cc3)C(=O)c3ccccc3N2O1 (stereo not given) | – | – | – | > 10 µM | – | > 100 µM | – | > 100 µM | – | > 100 µM | – | > 100 µM | – | > 10 µM | – | > 10 µM | – | > 10 µM | – | –

From PubChem BioAssay (NCI)
